Measurements published in patent US4582827A, “Pesticidal diphenylaziridines” (priority 1983, dated 1986).

How the values were obtained:
[1] = tested on: tobacco hornworm (Manduca sexta) larvae; test: Tobacco hornworm growth and developmental responses to feeding on diets containing the compounds; format: in vivo
Procedure: The compounds produced and described in Example 1 were then tested for pesticidal activity against the tobacco hornworm (Manduca sexta). The screening procedure for these tests began with the larval stage and continued through the pupal and adult stages and finally evaluated egg production. The studies thus permitted the evaluation of the effects of the compounds over several subsequent developmental stages in the total life cycle of the insect, giving estimates of acute toxicity (insecticidalor larvicidal activity) as well as prolonged or delayed effects on development (growth regulation) and reproduction (chemosterilization). The latter are of special importance in conjunction with the integrated pest management approach to insect control.
The test compounds were incorporated into the artificial diet of tobacco hornworm larvae and their subsequent growth and developmental responses were monitored using the following parameters: larval mortality including determination of LD50 values, rate of larval development and weight gain, percent pupation, pupal weight and degree of deformities, percent adult emergence and measures of reproductive capacity such as the number of developed ooctyes, fecundity and fertility. The protocol for the screening tests has been developed over a number of years by Dahlman et al., Comp. Biochem. Physiol. 51A, 33, (1975); Comp. Biochem. Physiol., 52A, 105 (1975); Ent. Exp. et Appl., 22, 123 (1977); Palumbo and D. L. Dahlman, J. Econ. Entomol. 71, 674 (1978); D. L. Dahlman, Ent. Exp. et Appl., 24, 327 (1978).
Each treatment used 15 newly ecdysed fifth-instar larvae. Death of larvae within a few hours to several days of initial exposure was considered to be acute toxicity. However, the compounds may reduce the maximum size attained by larvae and/or may retard growth so that larvae require additional time to attain their maximum size. Developmental parameters subsequent to the feeding stage also may be affected. […] Mortality may occur in the pupal stage or emerging adults may have wrinkled wings or other deformities. The number of eggs produced by treated females may be reduced and/or unfertile. Although acute toxicity is desirable in the control of any insect, the delayed effects which result in poor survival and reduced reproductive capacity are significant factors in the long-range program of pest management systems.
Continuous cultures of M. sexta are maintained according to the procedures of Yamamoto, J. Econ. Entomol., 62, p. 1427 (1969). Ingredients of the diet formulation include sugar, casein, wheat germ oil, cholesterol, salt mixture, yeast, vitamins, antioxidants and fungal inhibitors, such as ascorbic acid, sorbic acid, formaldehyde and methyl-p-benzoate. All are incorporated into a liquid agar base which, when poured into holding pans, solidifies to form an adequate substrate upon which the insect larvae feed. Nearly any test material can be uniformly incorporated into such a diet. Thus, exposure to experimental compounds can be evaluated during all or any part of the larval stage. In addition, chronic or long-term effects in subsequent life stages can also be monitored.
The results from these studies, in which the 1,2-diphenylaziridines of Example 1 were incorporated singly into the diet of M. sexta at a concentration of 5 mM are presented in the following Table I.

[2] = tested on: tobacco hornworm larvae (newly ecdysed fifth-instar); test: Topical application to tobacco hornworm larvae; format: in vivo, Manduca sexta
Procedure: The test compounds were dissolved either in acetone or hexane and applied to the integument of the test insect with a micro applicator. Newly ecdysed fifth-instar tobacco hornworm larvae weighing between 1-1.5 g were used and toxicity data were obtained in the same way as previously described.

H. virescens = test: Incorporation into H. virescens diet; format: in vivo, Heliothis virescens; settings: as much as 20 mM in diet
Procedure: Compounds 1, 10, 11, 13 and 14 were incorporated into H. virescens diet in the same manner as M. Sexta. Diets containing as much as 20 mM of each compound had little effect on larval development time, pupal weight or time to adult emergence.

[3] = tested on: Salmonella typhimurium strains TA 98, TA 100, TA 1535, TA 1537, TA 1538, TA 1978; test: Ames assay (spot test), revertant colonies; format: cell-based
Procedure: This means that aziridine compounds, 1, 10, or 11, will not cause mutations in DNA arising from potential changes in frame shift and/or base pairing. Compounds 1, 10 and 11 were tested for mutagenic properties using the following experimental procedure.
Potential mutagenic and carcinogenic properties of the compounds were evaluated with standard Ames assay procedures (Ames et al, "Mutation Res.", 31, p. 347, 1975). This assay used strains of Salmonella typhimurium selected for sensitivity and specificity in being reverted from a histidine requirement back to prototrophy by a wide variety of mutagens. Potential changes in frameshift were evaluated using strains TA 98, TA 1537 and TA 1538, while changes in base pairing were detected using strains TA 100 and TA 1535. In addition, strain TA 1978 was used, in combination with TA 1538, to evaluate whether the agent killed bacteria by damage to DNA that could be repaired by this strain. Initially, the compounds were screened using the spot test, in which 1000 μgm of material dissolved in 10 μl of DNSO was applied to the middle of the plate.
Dose-response tests were not performed because the results were negative. All the tests were carried out in the presence and absence of an S9 rat liver preparation and contained a positive control (2-acetylaminofluorene,AAF) and a negative control (DMSO).

Clc1ccccc1C1CN1c1ccc(Br)cc1 (stereo not shown) [Compound 1]
% Adult Emergence ([1]; 1 mM in diet): 100% | % Adults ([1]; 1 mM in diet): 100% | % Malformed Adults ([1]; 1 mM in diet): 0% | % Pupation ([1]; 1 mM in diet): 100% | Days to Max Wt ([1]; 1 mM in diet): 5.8 ± .2 days | Max Larval Wt ([1]; 1 mM in diet): 7.94 g | Mean No. of Eggs ([1]; 1 mM in diet): 32 ± 9 | No. of female Adults ([1]; 1 mM in diet): 10 | Total No. of Adults ([1]; 1 mM in diet): 15 | larval weight ([1]; 1 mM in diet): a slight reduction in larval weight | mean number of eggs ([1]; 1 mM in diet, relative to controls): only half that of the controls | % Adult Emergence ([1]; 2.5 mM in diet): 100% | % Adults ([1]; 2.5 mM in diet): 27% | % Malformed Adults ([1]; 2.5 mM in diet): 50% | % Pupation ([1]; 2.5 mM in diet): 27% | Days to Max Wt ([1]; 2.5 mM in diet): 6.2 ± 0.7 days | Max Larval Wt ([1]; 2.5 mM in diet): 4.99 g | Mean No. of Eggs ([1]; 2.5 mM in diet): 8 ± 9 | No. of female Adults ([1]; 2.5 mM in diet): 2 | Total No. of Adults ([1]; 2.5 mM in diet): 4 | malformed adults ([1]; 2.5 mM in diet): a large percentage | maximum larval weight and mean number of eggs ([1]; 2.5 mM in diet): reduced maximum larval weight and the mean number of eggs | percent pupation ([1]; 2.5 mM in diet): lowered the percent pupation | larval death (words in table) ([1]; 5 mM in diet): ALL DEAD BY SECOND DAY OF FEEDING | larval mortality ([1]; 5 mM in diet): all or nearly all larvae died | symptoms of larvae ([1]; 5 mM in diet): extreme agitation of larvae, oral and anal expulsion of fluids and ultimately, death | time until all larvae dead ([1]; 5 mM in diet): ≥ 48 h | oral activity ([1]; diet, Example 2): good oral activity | larval mortality (acute toxicity) ([1]; in 24-72 hours, summary of Tables I and II): 100% | time to 100% larval mortality ([1]; summary of Tables I and II): 24 to 72 h | larvae killed ([2]; 1000 μg/larva (800 ppm), within 48 hr): 70% | developmental effects ([2]; 400 ppm topical): delayed larval development, reduced maximum size and the number of resulting eggs | effect on larval development time, pupal weight or time to adult emergence (H. virescens): little effect | Mean number of revertant colonies per plate, TA 98 +S9 ([3]; strain TA 98, +S9): 44.0 colonies per plate | Mean number of revertant colonies per plate, TA 98 -S9 ([3]; strain TA 98, -S9): 32.7 colonies per plate | Mean number of revertant colonies per plate, TA 100 +S9 ([3]; strain TA 100, +S9): 61.7 colonies per plate | Mean number of revertant colonies per plate, TA 100 -S9 ([3]; strain TA 100, -S9): 25.3 colonies per plate | Mean number of revertant colonies per plate, TA 1535 +S9 ([3]; strain TA 1535, +S9): 15.0 colonies per plate | Mean number of revertant colonies per plate, TA 1535 -S9 ([3]; strain TA 1535, -S9): 17.3 colonies per plate | Mean number of revertant colonies per plate, TA 1537 +S9 ([3]; strain TA 1537, +S9): 13.3 colonies per plate | Mean number of revertant colonies per plate, TA 1537 -S9 ([3]; strain TA 1537, -S9): 7.5 colonies per plate | Mean number of revertant colonies per plate, TA 1538 +S9 ([3]; strain TA 1538, +S9): 26.7 colonies per plate | Mean number of revertant colonies per plate, TA 1538 -S9 ([3]; strain TA 1538, -S9): 12.0 colonies per plate | Mean number of revertant colonies per plate, TA 1978 +S9 ([3]; strain TA 1978, +S9): 189.0 colonies per plate | Mean number of revertant colonies per plate, TA 1978 -S9 ([3]; strain TA 1978, -S9): 207.3 colonies per plate | mutagenicity ([3]; with and without S9 / mammalian liver enzymes): not mutagenic
